“Also recorded” adds a separate entry of the source. Marks after values point to notes of the source that are not given here.
Experiments:
[1] = tested on: laying hens; assay: Yolk cholesterol contents of eggs from statin-treated laying hens; type: in vivo, White Leghorn hens; conditions: for less total yolk cholesterol than control eggs: week 2, per yolk
Procedure: Agric. […] Hens were treated as described in Example 1. […] The eggs were hard-cooked, and the yolks were separated, weighed, and crumbled. […] Agric. […] Egg homogenate filtrates were analyzed for cholesterol as described in Rudel, L. L. and Morris, M. D., J. Lipid Res. 14:364-366 (1973).

[2] = tested on: laying hens; assay: Egg production, egg weights and yolk weights of statin-treated laying hens; type: in vivo, White Leghorn hens
Procedure: Hens were treated as described in Example 1. Egg yolk was weighed as outlined in Example 2.

[3] = tested on: apolipoprotein B (apoB) mRNA; assay: Northern blot of liver mRNA: apoB; type: in vivo, White Leghorn hens; conditions: normalized by 18S rRNA; day 35
Description: Endocrinol. […] Endocrinol.

[4] = tested on: laying hens; assay: Liver cholesterol content; conditions: day 35
[5] = Liver weight of statin-treated laying hens; conditions: day 35
[6] = 0.03% of diet, Week 1, listed as atorvastatin
[7] = 0.06% of diet, Week 1, listed as atorvastatin
[8] = 0.06% of diet, week 5 (maximal reduction for simvastatin, lovastatin)
[9] = 0.03% of diet, Overall (weeks 1-5)
[10] = 0.06% of diet, Overall (weeks 1-5)

- Egg weight, g [2, 9]: 61.3 ± 1.0^a,b (132) g
- Hen-day egg production, % [2, 9]: 75.4 ± 4.1^b,c (132) %
- Yolk weight, g [2, 9]: 16.6 ± 0.1^a (25) g
- Egg weight, g ([2]; 0.03% of diet, Week 1): 63.0 ± 0.7^a g
- Hen-day egg production, % ([2]; 0.03% of diet, Week 1): 82.9 ± 1.8^c,d %
- Yolk weight, g ([2]; 0.03% of diet, Week 1): 17.2 ± 0.3^a g
- Egg weight, g ([2]; 0.03% of diet, Week 2): 61.2 ± 0.8^c,d g
- Hen-day egg production, % ([2]; 0.03% of diet, Week 2): 68.6 ± 1.0^c %
- Yolk weight, g ([2]; 0.03% of diet, Week 2): 16.2 ± 0.3^a g
- Egg weight, g ([2]; 0.03% of diet, Week 3): 60.5 ± 0.8^c g
- Hen-day egg production, % ([2]; 0.03% of diet, Week 3): 80.0 ± 2.0^b %
- Yolk weight, g ([2]; 0.03% of diet, Week 3): 16.7 ± 0.4^a g
- Hen-day egg production, % ([2]; 0.03% of diet, Week 4): 77.1 ± 1.2^c %
- Yolk weight, g ([2]; 0.03% of diet, Week 4): 16.2 ± 0.2^b g
- Egg weight, g ([2]; 0.03% of diet, Week 5): 61.0 ± 0.7^b g
- Hen-day egg production, % ([2]; 0.03% of diet, Week 5): 77.1 ± 1.2^c,d %
- Yolk weight, g ([2]; 0.03% of diet, Week 5): 16.6 ± 0.3^a g
- Egg weight, g [2, 10]: 58.9 ± 0.9^b (121) g
- Hen-day egg production, % [2, 10]: 69.1 ± 3.5^c (121) %
- Yolk weight, g [2, 10]: 14.3 ± 0.2^b (25) g
- Egg weight, g ([2]; 0.06% of diet, Week 1): 63.6 ± 0.8^a g
- Hen-day egg production, % ([2]; 0.06% of diet, Week 1): 82.9 ± 1.0^c,d %
- Yolk weight, g ([2]; 0.06% of diet, Week 1): 16.1 ± 0.3^a g
- Egg weight, g ([2]; 0.06% of diet, Week 2): 59.5 ± 1.0^d g
- Hen-day egg production, % ([2]; 0.06% of diet, Week 2): 60.0 ± 1.8^d %
- Yolk weight, g ([2]; 0.06% of diet, Week 2): 13.4 ± 0.3^b g
- Egg weight, g ([2]; 0.06% of diet, Week 3): 56.9 ± 0.7^d g
- Hen-day egg production, % ([2]; 0.06% of diet, Week 3): 68.6 ± 1.8^c %
- Yolk weight, g ([2]; 0.06% of diet, Week 3): 13.9 ± 0.5^b g
- Egg weight, g ([2]; 0.06% of diet, Week 4): 56.8 ± 0.7^e g
- Hen-day egg production, % ([2]; 0.06% of diet, Week 4): 68.6 ± 1.8^d %
- Yolk weight, g ([2]; 0.06% of diet, Week 4): 13.9 ± 0.3^c g
- Egg weight, g ([2]; 0.06% of diet, Week 5): 57.8 ± 0.7^c g
- Hen-day egg production, % ([2]; 0.06% of diet, Week 5): 74.3 ± 1.0^d %
- Yolk weight, g ([2]; 0.06% of diet, Week 5): 14.2 ± 0.4^b g
- Liver Weight g ([5]; 0.03% of diet): 30.9 ± 1.2^b g
- Liver Weight g/100 g BW ([5]; 0.03% of diet): 1.82 ± 0.05^a,b g/100 g BW
- Liver Weight g ([5]; 0.06% of diet): 35.3 ± 2.3^a g
- Liver Weight g/100 g BW ([5]; 0.06% of diet): 2.02 ± 0.09^a g/100 g BW
SMILES: CC(C)c1c(C(=O)Nc2ccccc2)c(-c2ccccc2)c(-c2ccc(F)cc2)n1CC[C@@H](O)C[C@@H](O)CC(=O)O [Atorvastatin, (ΔR,δR)-2-(p-fluorophenyl)-β,δ-dihydroxy-5-isopropyl-3-phenyl-4-(phenylcarbamoyl)pyrrole-1-heptanoic acid]
- Yolk cholesterol content, mg cholesterol/g yolk ([1]; 0.03% of diet, Week 0): 11.4 ± 0.3^a mg cholesterol/g yolk
- Yolk cholesterol content, mg cholesterol/yolk ([1]; 0.03% of diet, Week 0): 203.2 ± 7.7^a mg cholesterol/yolk
- Yolk cholesterol content, mg cholesterol/g yolk ([1]; 0.03% of diet, Week 1): 9.4 ± 0.3^c mg cholesterol/g yolk
- Yolk cholesterol content, mg cholesterol/yolk ([1]; 0.03% of diet, Week 1): 161.7 ± 5.5^b,c mg cholesterol/yolk
- Yolk cholesterol content, mg cholesterol/g yolk [1, 6]: 9.4 mg cholesterol/g yolk
- Yolk cholesterol content, mg cholesterol/yolk [1, 6]: 161.7 mg cholesterol/yolk
- Yolk cholesterol content, mg cholesterol/g yolk ([1]; 0.03% of diet, Week 2): 8.7 ± 0.2^e mg cholesterol/g yolk
- Yolk cholesterol content, mg cholesterol/g yolk ([1]; 0.03% of diet, Week 3): 8.6 ± 0.2^e mg cholesterol/g yolk
- Yolk cholesterol content, mg cholesterol/yolk ([1]; 0.03% of diet, Week 3): 143.7 ± 3.3^c mg cholesterol/yolk
- Yolk cholesterol content, mg cholesterol/g yolk ([1]; 0.03% of diet, Week 4): 8.3 ± 0.1^d mg cholesterol/g yolk
- Yolk cholesterol content, mg cholesterol/yolk ([1]; 0.03% of diet, Week 4): 134.4 ± 2.2^c mg cholesterol/yolk
- Yolk cholesterol content, mg cholesterol/g yolk ([1]; 0.03% of diet, Week 5): 8.2 ± 0.2^d mg cholesterol/g yolk
- Yolk cholesterol content, mg cholesterol/yolk ([1]; 0.03% of diet, Week 5): 137.2 ± 3.8^d mg cholesterol/yolk
- Yolk cholesterol content, mg cholesterol/yolk ([1]; 0.03% of diet, Week 5, listed as atorvastatin): 137.2 mg cholesterol/yolk
- Yolk cholesterol content, mg cholesterol/g yolk ([1]; 0.06% of diet, Week 0): 11.3 ± 0.3^a mg cholesterol/g yolk
- Yolk cholesterol content, mg cholesterol/yolk ([1]; 0.06% of diet, Week 0): 191.9 ± 7.3^a mg cholesterol/yolk
- Yolk cholesterol content, mg cholesterol/g yolk ([1]; 0.06% of diet, Week 1): 9.3 ± 0.2^c mg cholesterol/g yolk
- Yolk cholesterol content, mg cholesterol/yolk ([1]; 0.06% of diet, Week 1): 149.7 ± 3.8^c mg cholesterol/yolk
- Yolk cholesterol content, mg cholesterol/g yolk [1, 7]: 9.3 mg cholesterol/g yolk
- Yolk cholesterol content, mg cholesterol/yolk [1, 7]: 149.7 mg cholesterol/yolk
- Yolk cholesterol content, mg cholesterol/g yolk ([1]; 0.06% of diet, Week 2): 7.8 ± 0.3^f mg cholesterol/g yolk
- Yolk cholesterol content, mg cholesterol/yolk ([1]; 0.06% of diet, Week 2): 105.3 ± 4.3^d mg cholesterol/yolk
- Yolk cholesterol content, mg cholesterol/yolk ([1]; 0.06% of diet, Week 2, listed as atorvastatin): 105.3 mg cholesterol/yolk
- Yolk cholesterol content, mg cholesterol/g yolk ([1]; 0.06% of diet, Week 3): 7.5 ± 0.1^f mg cholesterol/g yolk
- Yolk cholesterol content, mg cholesterol/yolk ([1]; 0.06% of diet, Week 3): 104.0 ± 3.7^d mg cholesterol/yolk
- Yolk cholesterol content, mg cholesterol/g yolk ([1]; 0.06% of diet, Week 4): 7.5 ± 0.1^e mg cholesterol/g yolk
- Yolk cholesterol content, mg cholesterol/yolk ([1]; 0.06% of diet, Week 4): 104.2 ± 2.3^d mg cholesterol/yolk
- Yolk cholesterol content, mg cholesterol/g yolk ([1]; 0.06% of diet, Week 5): 7.6 ± 0.2^d mg cholesterol/g yolk
- yolk cholesterol reduction from control on a per yolk (egg) basis [1, 8]: 46%
- yolk cholesterol reduction from control per g of yolk (mg/g basis) [1, 8]: 35%
- less total yolk cholesterol than control eggs ([1]; high dose (0.06%)): 45%
- less total yolk cholesterol than control eggs ([1]; low dose (0.03%)): 27%
- decrease in yolk weight ([2]; 0.06% of diet, Week 5): 19%
- hepatic apoB mRNA, linear contrasts (P≦0.05) [3]: atorvastatin>lovastatin; also recorded: atorvastatin>simvastatin
- Liver Cholesterol mg/g liver ([4]; 0.03% of diet): 2.8 ± 0.05^c mg/g liver
- Liver Cholesterol mg/liver ([4]; 0.03% of diet): 87.4 ± 2.2^a mg/liver
- Liver Cholesterol mg/g liver ([4]; 0.06% of diet): 2.5 ± 0.07^d mg/g liver
- Liver Cholesterol mg/liver ([4]; 0.06% of diet): 89.7 ± 5.2^a mg/liver

Reference: patent US20010006697A1, “Composition and method for producing low cholesterol eggs” (priority 1997, published 2001)
